Results taken from patent US4596828A, “[(2-hydroxy-5-alkoxyphenyl)methylthio]phenylmethanol and derivatives thereof useful as anti-inflammatory agents” (Merck & Co., Inc., priority 1985, dated 1986).

System: inflammatory responses elicited by topically applied phorbol myristate acetate (PMA) or arachidonic acid (AA) in mouse ears
Assay: Topical mouse ear assay (TME): edema measured by wet weight after topical PMA or AA
Format: in vivo
Settings: mean, N=5 mice/group
Procedure: The topical mouse ear assay (TME) was used to evaluate the novel compounds of the present invention for its effect on inflammatory responses elicited by topically applied phorbol myristate acetate (PMA) or topically applied archidonic acid (AA).
Method: The right ears of mice (5 mice per group) were treated topically with either […] or 1000 μg AA alone or with the test compound in 25 μl of vehicle. The vehicle was water/pyridine/acetone (1:2:97). A control group of mice received the vehicle only. The mice were allowed food and water ad libitum during the treatment period; 2 hours for AA and 4 hours for PMA. The mice were sacrificed by cervical dislocation and a 6 mm diameter disc of tissue punched from both the treated and untreated ears. The tissue biopsies were immediately weighed and the weight increase of the treated ear relative to the weight of the untreated ear determined.
All of the data are expressed as the mean ±SEM, N=5 mice/group.

## C[C@@H]1C[C@H]2[C@@H]3CCC4=CC(=O)C=C[C@]4(C)[C@@]3(F)[C@@H](O)C[C@]2(C)[C@@]1(O)C(=O)CO [Dexamethasone, reference compound]
Dosage 5 μg
  Edema (% inhibition): 60%

## COc1ccc(O)c(CSc2ccccc2CO)c1 [Compound A, 2-[2-(Hydroxymethyl)phenylthiomethyl]-4-methoxyphenol]
Dosage 30 μg
  Edema (% inhibition): 12%
Dosage 50 μg
  Edema (% inhibition): 16%
Dosage 200 μg
  Edema (% inhibition): 55%
Dosage 300 μg
  Edema (% inhibition): 63%

## COc1ccc2c(c1)c(CC(=O)O)c(C)n2C(=O)c1ccc(Cl)cc1 [Indomethacin, reference compound]
Dosage 150 μg
  Edema (% inhibition): 51%
